Measured values from patent publication US20260234115A1, “LIPID COMPOUNDS, COMPOSITIONS, AND USES THEREOF” (Liberate Bio, Inc., priority 2023, published 2026).
Marks after values point to notes of the source that are not given here.

Test system: mouse organs
Assay: In vivo activity screening in mice: organ mean total flux (p/s) of luciferase activity after injection of F2 LNP pools (Table 6, FIG. 7A-7C)
Details: luciferase mRNA
Description: Small rodent biodistribution studies were performed in mice (e.g., C57BL/6J, Balb-c, CD-1, etc.). For evaluating LNP biodistribution and tissue activity upon systemic administration, C57BL/6J mice received dose administration by single intravenous injection via tail vein with LNP formulations (individual or pooled) in PBS, at different dose (0.25-3 mg/kg) levels of firefly luciferase mRNA. At predetermined time points (4-6 hours post-injection), the animals were anesthetized via isoflurane and subjected to in-life imaging sessions for bioluminescence using an In Vivo Imaging System (IVIS). All animals were dosed with D-Luciferin at 15 mg/mL via subcutaneous (SC) injection at 0.2 mL/animal. Animals had their abdomen hair shaved using an animal trimmer. They were then placed so their shaved belly faced up toward the IVIS camera. Whole body imaging sessions were performed 10-15 minutes following D-Luciferin administration.
For in detail organ distribution and activity of LNP formulations, ex vivo imaging sessions were also performed. All animals received SC D-Luciferin and were then euthanized by isoflurane overdose, followed by cardiac perfusion with saline. Following perfusion, the organs were collected and subjected to IVIS imaging for luminescence within 10-15 minutes of D-Luciferin injection.
All IVIS images were processed with a computer software to identify the regions of interests for individual organs to detect the total flux (p/s) values as luminescence quantification. Then the total flux values were graphed to evaluate the in vivo activity in each collected organ.
Small rodent biodistribution studies were performed in mice according to the General Study Protocols in Example 3(a). LNPs incorporating lipid compounds were prepared in Formulation F2, with MC3 as lipid compound (Cayman Chemical) prepared using Formulation F2 for comparison. LNP pools (with firefly luciferase mRNA encapsulated) were injected into mice at varying doses, and organ mean total flux (p/s) results (measuring luciferase activity) were then collected according to Example 3(a).
LNPs comprising MC3 used as a control and for cross-mouse comparison. Dose is in mg/kg; LC is Lipid Compound according to Table 1.
Additional screening results for Compounds 7, 13, 14, 26, 33, 38, 39, 40, 48, 60, 61, 89, 103, and 109 in spleen, femur, and muscle are shown in FIG. 7A, FIG. 7B, and FIG. 7C, with MC3 as a used as a control for comparison.

CCCCC/C=C\CCOC(=O)CCCCC(=O)OCC(COC(=O)CCCCC(=O)OCC/C=C\CCCCC)(COC(=O)CCCCC(=O)OCC/C=C\CCCCC)COC(=O)CCC(CCCCCC)OC(=O)NCCN1CCCC1 (stereo not drawn) [Compound 13, O6-[2,2-bis[[6-[(Z)-non-3-enoxy]-6-oxo-hexanoyl]oxymethyl]-3-[4-(2-pyrrolidin-1-ylethylcarbamoyloxy)decanoyloxy]propyl]O1-[(Z)-non-3-enyl]hexanedioate]
Organ Mean Total Flux Femur (Mouse 12, dose 0.5 mg/kg): 4.8 p/s (×10^6)
Organ Mean Total Flux Heart (Mouse 12, dose 0.5 mg/kg): 1.0 p/s (×10^6)
Organ Mean Total Flux Kidney (Mouse 12, dose 0.5 mg/kg): 4.5 p/s (×10^6)
Organ Mean Total Flux Liver (Mouse 12, dose 0.5 mg/kg): 620.0 p/s (×10^6)
Organ Mean Total Flux Lung (Mouse 12, dose 0.5 mg/kg): 16.7 p/s (×10^6)
Organ Mean Total Flux Muscle (Mouse 12, dose 0.5 mg/kg): 17.0 p/s (×10^6)
Organ Mean Total Flux Pancreas (Mouse 12, dose 0.5 mg/kg): 1.1 p/s (×10^6)
Organ Mean Total Flux Spleen (Mouse 12, dose 0.5 mg/kg): 21.3 p/s (×10^6)

CCCCC/C=C\CCOC(=O)CCCCC(=O)OCC(COC(=O)CCCCC(=O)OCC/C=C\CCCCC)(COC(=O)CCC(CCCCCC)OC(=O)NCCN1CCCC1)COC(=O)CCC(OCCCCCCCC)OCCCCCCCC (stereo not drawn) [Compound 15, O6-[2-(4,4-dioctoxybutanoyloxymethyl)-2-[[6-[(Z)-non-3-enoxy]-6-oxo-hexanoyl]oxymethyl]-3-[4-(2-pyrrolidin-1-ylethylcarbamoyloxy)decanoyloxy]propyl]O1-[(Z)-non-3-enyl]hexanedioate]
Organ Mean Total Flux Femur (Mouse 13, dose 0.5 mg/kg): 1.3 p/s (×10^6)
Organ Mean Total Flux Heart (Mouse 13, dose 0.5 mg/kg): 1.4 p/s (×10^6)
Organ Mean Total Flux Kidney (Mouse 13, dose 0.5 mg/kg): 0.4 p/s (×10^6)
Organ Mean Total Flux Liver (Mouse 13, dose 0.5 mg/kg): 992.3 p/s (×10^6)
Organ Mean Total Flux Lung (Mouse 13, dose 0.5 mg/kg): 3.7 p/s (×10^6)
Organ Mean Total Flux Muscle (Mouse 13, dose 0.5 mg/kg): 1.1 p/s (×10^6)
Organ Mean Total Flux Pancreas (Mouse 13, dose 0.5 mg/kg): 0.1 p/s (×10^6)
Organ Mean Total Flux Spleen (Mouse 13, dose 0.5 mg/kg): 1.6 p/s (×10^6)

CCCCC/C=C\CCOC(=O)CCCCCC(=O)OCC(COC(=O)CCCCCCOC(=O)C(CCCC)CCCCCC)(COC(=O)CCCCCCOC(=O)C(CCCC)CCCCCC)COC(=O)CCC(CCCCCC)OC(=O)NCCN1CCCC1 (stereo not drawn) [Compound 17, O7-[2,2-bis[7-(2-butyloctanoyloxy)heptanoyloxymethyl]-3-[4-(2-pyrrolidin-1-ylethylcarbamoyloxy)decanoyloxy]propyl]O1-[(Z)-non-3-enyl]heptanedioate]
Organ Mean Total Flux Femur (Mouse 2, dose 1.0 mg/kg): 8.0 p/s (×10^6)
Organ Mean Total Flux Heart (Mouse 2, dose 1.0 mg/kg): 13.0 p/s (×10^6)
Organ Mean Total Flux Kidney (Mouse 2, dose 1.0 mg/kg): 7.6 p/s (×10^6)
Organ Mean Total Flux Liver (Mouse 2, dose 1.0 mg/kg): 11856 p/s (×10^6)
Organ Mean Total Flux Lung (Mouse 2, dose 1.0 mg/kg): 59.3 p/s (×10^6)
Organ Mean Total Flux Muscle (Mouse 2, dose 1.0 mg/kg): 30.7 p/s (×10^6)
Organ Mean Total Flux Pancreas (Mouse 2, dose 1.0 mg/kg): 3.0 p/s (×10^6)
Organ Mean Total Flux Spleen (Mouse 2, dose 1.0 mg/kg): 5.5 p/s (×10^6)

CCCC/C=C\CCOC(=O)CCCCCCCC(=O)OCC(COC(=O)CCCCCCCC(=O)OCC/C=C\CCCC)(COC(=O)CCCCCCCC(=O)OCC/C=C\CCCC)COC(=O)CCC(CCCCCC)OC(=O)NCCN1CCCC1 (stereo not drawn) [Compound 21, O9-[2,2-bis[[9-[(Z)-oct-3-enoxy]-9-oxo-nonanoyl]oxymethyl]-3-[4-(2-pyrrolidin-1ylethylcarbamoyloxy)decanoyloxy]propyl]O1-[(Z)-oct-3-enyl]nonanedioate]
Organ Mean Total Flux Femur (Mouse 11, dose 0.5 mg/kg): 2.0 p/s (×10^6)
Organ Mean Total Flux Heart (Mouse 11, dose 0.5 mg/kg): 0.8 p/s (×10^6)
Organ Mean Total Flux Kidney (Mouse 11, dose 0.5 mg/kg): 0.7 p/s (×10^6)
Organ Mean Total Flux Liver (Mouse 11, dose 0.5 mg/kg): 818.7 p/s (×10^6)
Organ Mean Total Flux Lung (Mouse 11, dose 0.5 mg/kg): 6.6 p/s (×10^6)
Organ Mean Total Flux Muscle (Mouse 11, dose 0.5 mg/kg): 4.1 p/s (×10^6)
Organ Mean Total Flux Pancreas (Mouse 11, dose 0.5 mg/kg): 2.8 p/s (×10^6)
Organ Mean Total Flux Spleen (Mouse 11, dose 0.5 mg/kg): 2.0 p/s (×10^6)

CCCCCCCCCOC(=O)CCCCCCC(=O)OCC(COC(=O)CCCCCCC(=O)OCCCCCCCCC)(COC(=O)CCCCCCC(=O)OCCCCCCCCC)COC(=O)CCC(CCCCCC)OC(=O)NCCN1CCCC1 (stereo not drawn) [Compound 23, O8-[2,2-bis[(8-nonoxy-8-oxo-octanoy)oxymethyl]-3-[4-(2-pyrrolidin-1-ylethylcarbamoyloxy)decanoyloxy]propyl]O1-nonyl octanedioate]
Organ Mean Total Flux Femur (Mouse 11, dose 0.5 mg/kg): 1.2 p/s (×10^6)
Organ Mean Total Flux Heart (Mouse 11, dose 0.5 mg/kg): 2.1 p/s (×10^6)
Organ Mean Total Flux Kidney (Mouse 11, dose 0.5 mg/kg): 1.2 p/s (×10^6)
Organ Mean Total Flux Liver (Mouse 11, dose 0.5 mg/kg): 1727 p/s (×10^6)
Organ Mean Total Flux Lung (Mouse 11, dose 0.5 mg/kg): 15.7 p/s (×10^6)
Organ Mean Total Flux Muscle (Mouse 11, dose 0.5 mg/kg): 3.0 p/s (×10^6)
Organ Mean Total Flux Pancreas (Mouse 11, dose 0.5 mg/kg): 0.6 p/s (×10^6)
Organ Mean Total Flux Spleen (Mouse 11, dose 0.5 mg/kg): 1.7 p/s (×10^6)

CCCCCCCCCOC(=O)CCCCCC(=O)OCC(COC(=O)CCCCCC(=O)OCCCCCCCCC)(COC(=O)CCCCCC(=O)OCCCCCCCCC)COC(=O)CCC(CCCCCC)OC(=O)NCCN1CCCC1 (stereo not drawn) [Compound 24, O7-[2,2-bis[(7-nonoxy-7-oxo-heptanoyl)oxymethyl]-3-[4-(2-pyrrolidin-1-ylethylcarbamoyloxy)decanoyloxy]propyl]O1-nonyl heptanedioate]
Organ Mean Total Flux Femur (Mouse 6, dose 0.5 mg/kg): 6.3 p/s (×10^6)
Organ Mean Total Flux Heart (Mouse 6, dose 0.5 mg/kg): 7.1 p/s (×10^6)
Organ Mean Total Flux Kidney (Mouse 6, dose 0.5 mg/kg): 5.7 p/s (×10^6)
Organ Mean Total Flux Liver (Mouse 6, dose 0.5 mg/kg): 4153 p/s (×10^6)
Organ Mean Total Flux Lung (Mouse 6, dose 0.5 mg/kg): 28.8 p/s (×10^6)
Organ Mean Total Flux Muscle (Mouse 6, dose 0.5 mg/kg): 12.1 p/s (×10^6)
Organ Mean Total Flux Pancreas (Mouse 6, dose 0.5 mg/kg): 7.9 p/s (×10^6)
Organ Mean Total Flux Spleen (Mouse 6, dose 0.5 mg/kg): 10.7 p/s (×10^6)

CCCCC/C=C\CCOC(=O)CCCCCCC(=O)OCC(COC(=O)CCCCCCC(=O)OCC/C=C\CCCCC)(COC(=O)CCCCCCC(=O)OCC/C=C\CCCCC)COC(=O)CCC(CCCC)OC(=O)NCCN1CCCC1 (stereo not drawn) [Compound 25, O8-[2,2-bis[[8-[(Z)-non-3-enoxy]-8-oxo-octanoyl]oxymethyl]-3-[4-(2-pyrrolidin-1-ylethylcarbamoyloxy)octanoyloxy]propyl]O1-[(Z)-non-3-enyl]octanedioate]
Organ Mean Total Flux Femur (Mouse 6, dose 0.5 mg/kg): 4.4 p/s (×10^6)
Organ Mean Total Flux Heart (Mouse 6, dose 0.5 mg/kg): 1.4 p/s (×10^6)
Organ Mean Total Flux Kidney (Mouse 6, dose 0.5 mg/kg): 5.9 p/s (×10^6)
Organ Mean Total Flux Liver (Mouse 6, dose 0.5 mg/kg): 911.0 p/s (×10^6)
Organ Mean Total Flux Lung (Mouse 6, dose 0.5 mg/kg): 12.5 p/s (×10^6)
Organ Mean Total Flux Muscle (Mouse 6, dose 0.5 mg/kg): 5.1 p/s (×10^6)
Organ Mean Total Flux Pancreas (Mouse 6, dose 0.5 mg/kg): 14.3 p/s (×10^6)
Organ Mean Total Flux Spleen (Mouse 6, dose 0.5 mg/kg): 80.3 p/s (×10^6)

CCCCC/C=C\CCOC(=O)CCCCCC(=O)OCC(COC(=O)CCCCCC(=O)OCC/C=C\CCCCC)(COC(=O)CCCCCC(=O)OCC/C=C\CCCCC)COC(=O)CCC(CCCC)OC(=O)NCCN1CCCC1 (stereo not drawn) [Compound 26, O7-[2,2-bis[[7-[(Z)-non-3-enoxy]-7-oxo-heptanoyl]oxymethyl]-3-[4-(2-pyrrolidin-1-ylethylcarbamoyloxy)octanoyloxy]propyl]O1-[(Z)-non-3-enyl]heptanedioate]
Organ Mean Total Flux Femur (Mouse 11, dose 0.5 mg/kg): 20.0 p/s (×10^6)
Organ Mean Total Flux Heart (Mouse 11, dose 0.5 mg/kg): 1.2 p/s (×10^6)
Organ Mean Total Flux Kidney (Mouse 11, dose 0.5 mg/kg): 4.4 p/s (×10^6)
Organ Mean Total Flux Liver (Mouse 11, dose 0.5 mg/kg): 481.0 p/s (×10^6)
Organ Mean Total Flux Lung (Mouse 11, dose 0.5 mg/kg): 26.9 p/s (×10^6)
Organ Mean Total Flux Muscle (Mouse 11, dose 0.5 mg/kg): 6.2 p/s (×10^6)
Organ Mean Total Flux Pancreas (Mouse 11, dose 0.5 mg/kg): 8.2 p/s (×10^6)
Organ Mean Total Flux Spleen (Mouse 11, dose 0.5 mg/kg): 152.7 p/s (×10^6)

CCCCC/C=C\CCOC(=O)CCCCCCC(=O)OCC(COC(=O)CCCCCCC(=O)OCC/C=C\CCCCC)(COC(=O)CCCCCCC(=O)OCC/C=C\CCCCC)COC(=O)CCC(CCCCCCCC)OC(=O)NCCN1CCCC1 (stereo not drawn) [Compound 27, O8-[2,2-bis[[8-[(Z)-non-3-enoxy]-8-oxooctanoyl]oxymethyl]-3-[4-(2-pyrrolidin-1-ylethylcarbamoyloxy)dodecanoyloxy]propyl]O1-[(Z)-non-3-enyl]octanedioate]
Organ Mean Total Flux Femur (Mouse 11, dose 0.5 mg/kg): 1.1 p/s (×10^6)
Organ Mean Total Flux Heart (Mouse 11, dose 0.5 mg/kg): 1.7 p/s (×10^6)
Organ Mean Total Flux Kidney (Mouse 11, dose 0.5 mg/kg): 1.2 p/s (×10^6)
Organ Mean Total Flux Liver (Mouse 11, dose 0.5 mg/kg): 1441 p/s (×10^6)
Organ Mean Total Flux Lung (Mouse 11, dose 0.5 mg/kg): 16.4 p/s (×10^6)
Organ Mean Total Flux Muscle (Mouse 11, dose 0.5 mg/kg): 2.0 p/s (×10^6)
Organ Mean Total Flux Pancreas (Mouse 11, dose 0.5 mg/kg): 0.5 p/s (×10^6)
Organ Mean Total Flux Spleen (Mouse 11, dose 0.5 mg/kg): 1.0 p/s (×10^6)
